Experimental findings from patent publication US12239638B2, “Crystalline form of a 4-[2-(2-fluorophenoxymethyl)phenyl]piperidine compound” (THERAVANCE BIOPHARMA R&D IP, LLC, priority 2008, dated 2025) are described below.

The target of one series is T1, hSERT (Homo sapiens, UniProt P31645).
T1 construct: expressed in transfected cells; host or cells: HEK-293 derived cell line, stably transfected; membranes
Kind of series: hSERT membrane radioligand binding assay (3H-citalopram). Particulars: compound of Example 1 tested as TFA salt; read-out: SERT pKi (converted). As to the method: (§1) Membrane radioligand binding assays were used to measure competitive inhibition of labeled ligand (^3H-citalopram or ^3H-nisoxetine or ^3H-WIN35428) binding to membranes prepared from cells expressing the respective human recombinant transporter (hSERT or hNET or hDAT) in order to determine the pKi values of test compounds at the transporters.
(§2) Recombinant human embryonic kidney (HEK-293) derived cell lines stably transfected with hSERT or hNET, respectively, were grown in DMEM medium supplemented with 10% dialyzed FBS (for hSERT) or FBS (for hNET), 100 μg/ml penicillin, 100 μg/ml streptomycin, 2 mM L-glutamine and 250 μg/ml of the aminoglycoside antibiotic G418, in a 5% CO2 humidified incubator at 37° C. When cultures reached 80% confluence, the cells were washed thoroughly in PBS (without Ca^2+ and Mg^2+) and lifted with 5 mM EDTA in PBS. […] Protein concentration of the membrane suspension was determined using a Bio-Rad Bradford Protein Assay kit. […]
(§3) Following a 60 minute incubation at 22° C. […] Plates were dried overnight at room temperature, ˜45 μl of MicroScint™-20 (Perkin Elmer) added and bound radioactivity quantitated via liquid scintillation spectroscopy. Competitive inhibition curves and saturation isotherms were analyzed using GraphPad Prism Software package (GraphPad Software, Inc., San Diego, CA). […]

The nature of series [1]: Thermal analysis by differential scanning calorimetry (DSC). The series is classed as physicochemical. As to conditions: heating ramp 10° C./min from 22° C. to 250° C. On the procedure: Differential scanning calorimetry (DSC) was performed using a TA Instruments Model Q-100 module with a Thermal Analyst controller. Data were collected and analyzed using TA Instruments Thermal Solutions software. A 2.8 mg sample of the crystalline hydrochloride salt of Example 2 was accurately weighed into a covered aluminum pan. After a 5 minute isothermal equilibration period at 22° C., the sample was heated using a linear heating ramp of 10° C./min from 22° C. to 250° C.
Background: Differential scanning calorimetry records heat flow against a reference as temperature is scanned.

A further series concerns the target T2, hNET (Homo sapiens, UniProt P23975).
T2 construct: expressed in transfected cells; host or cells: HEK-293 derived cell line, stably transfected; membranes
Description: hNET membrane radioligand binding assay (3H-nisoxetine). As to conditions: compound of Example 1 tested as TFA salt; read-out: NET pKi (converted). As to the method: as §1, §2, §3

T2 sequence (P23975 whole entry): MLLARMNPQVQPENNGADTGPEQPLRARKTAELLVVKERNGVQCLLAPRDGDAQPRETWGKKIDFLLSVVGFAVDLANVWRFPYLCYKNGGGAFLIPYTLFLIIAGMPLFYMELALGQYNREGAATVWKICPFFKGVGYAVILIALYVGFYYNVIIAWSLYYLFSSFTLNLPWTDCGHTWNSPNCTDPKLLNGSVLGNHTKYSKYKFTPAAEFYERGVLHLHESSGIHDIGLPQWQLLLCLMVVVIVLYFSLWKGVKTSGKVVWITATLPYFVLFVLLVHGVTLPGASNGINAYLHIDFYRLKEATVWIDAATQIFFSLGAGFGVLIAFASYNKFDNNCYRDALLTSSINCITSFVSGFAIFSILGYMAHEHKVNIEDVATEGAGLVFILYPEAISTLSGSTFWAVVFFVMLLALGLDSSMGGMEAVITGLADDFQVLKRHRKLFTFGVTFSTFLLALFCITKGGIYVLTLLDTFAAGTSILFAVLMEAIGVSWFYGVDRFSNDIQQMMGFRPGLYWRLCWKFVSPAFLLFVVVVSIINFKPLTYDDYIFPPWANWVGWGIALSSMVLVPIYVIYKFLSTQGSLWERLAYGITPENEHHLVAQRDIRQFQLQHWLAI
T1 sequence (P31645 whole entry): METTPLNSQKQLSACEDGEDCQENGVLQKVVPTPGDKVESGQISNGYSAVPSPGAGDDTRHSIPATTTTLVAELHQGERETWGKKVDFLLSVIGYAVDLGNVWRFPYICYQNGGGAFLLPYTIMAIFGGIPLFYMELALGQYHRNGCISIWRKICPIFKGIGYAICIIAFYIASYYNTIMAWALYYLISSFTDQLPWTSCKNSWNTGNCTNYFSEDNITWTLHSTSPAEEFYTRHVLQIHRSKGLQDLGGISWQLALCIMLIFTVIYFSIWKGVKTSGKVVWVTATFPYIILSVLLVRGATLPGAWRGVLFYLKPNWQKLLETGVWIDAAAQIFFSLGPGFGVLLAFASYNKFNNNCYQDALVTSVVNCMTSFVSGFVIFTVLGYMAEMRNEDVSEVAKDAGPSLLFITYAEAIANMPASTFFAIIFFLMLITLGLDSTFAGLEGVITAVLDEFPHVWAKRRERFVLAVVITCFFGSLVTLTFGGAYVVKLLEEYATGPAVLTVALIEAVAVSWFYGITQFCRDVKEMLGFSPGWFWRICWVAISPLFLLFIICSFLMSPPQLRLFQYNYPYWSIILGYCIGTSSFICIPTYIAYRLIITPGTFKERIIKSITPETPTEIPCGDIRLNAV

As to `Fc1cc(F)c(OCc2ccccc2C2CCNCC2)c(F)c1` [Example 1, 4-[2-(2,4,6-Trifluorophenoxymethyl)phenyl]piperidine], the Ki on hSERT is no more than 12.6 nM; at hNET it was no more than 10 nM. Besides, the “thermal stability (thermal decomposition by DSC)” value in series [1] is “no thermal decomposition below 200.0 °C”.
